Assay results taken from ChEMBL document CHEMBL1201862, “PubChem BioAssay data set” (2004).
Active and inactive are the calls of the source. Cut-off read from the data, not from the text of the source, for most assays here: actives have a measured EC50 and inactives only a lower limit.

Tests used:
[1] = HEp-2 cell cytotoxicity, dose response, cytotoxicity control for RSV inhibitor project, HTS (AID 2410); format: functional; conditions: human respiratory syncytial virus
[2] = Luminescence Cell-Based Dose Retest to Confirm Inhibitors of Cancer Stem Cells. [Related pubchem assays (depositor defined):AID2717, AID2721]; format: functional; conditions: Homo sapiens
[3] = Luminescence Cell-Based Dose Confirmation HTS to Identify Inhibitors of Platelet Dense Granule Release. [Related pubchem assays: 1663 (Primary HTS), 1678 (Summary of Project)]; format: functional
[4] = biological target: Luciferin 4-monooxygenase (Photinus pyralis, UniProt P08659); test: firefly luciferase enzyme inhibitors, dose response, biochemical, luminescence (AID 1891)
Sequence of Luciferin 4-monooxygenase (P08659 whole entry): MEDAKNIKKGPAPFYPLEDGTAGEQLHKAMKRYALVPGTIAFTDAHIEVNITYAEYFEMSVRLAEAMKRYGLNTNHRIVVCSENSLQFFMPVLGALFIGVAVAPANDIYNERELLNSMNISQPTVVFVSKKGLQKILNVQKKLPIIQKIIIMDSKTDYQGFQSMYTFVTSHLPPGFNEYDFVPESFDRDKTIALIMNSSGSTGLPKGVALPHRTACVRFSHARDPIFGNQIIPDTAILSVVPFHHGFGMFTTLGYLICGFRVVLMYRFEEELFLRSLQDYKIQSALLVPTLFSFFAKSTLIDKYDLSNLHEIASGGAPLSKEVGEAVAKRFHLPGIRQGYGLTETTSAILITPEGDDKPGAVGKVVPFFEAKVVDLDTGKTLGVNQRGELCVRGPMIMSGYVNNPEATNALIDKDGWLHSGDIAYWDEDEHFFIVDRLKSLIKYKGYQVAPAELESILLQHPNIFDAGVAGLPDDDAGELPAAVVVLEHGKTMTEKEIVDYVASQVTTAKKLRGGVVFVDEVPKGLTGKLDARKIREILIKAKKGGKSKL

[5] = C. albicans growth with fluconazole, confirmation, fluorescence, retest (AID 2467); format: functional, cell-based
[6] = NIH-3T3 fibroblast cytotoxicity, dose response, cytotoxicity control, cell-based, fluorescence, Alamar Blue, secondary assay (AID 2327); format: functional;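 note: NIH-3T3 mouse fibroblasts cultured with fluconazole at 8 µg/mL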
[7] = inhibitors of intracellular T. cruzi replication, confirmation, NIH3T3 host cells, beta-gal luminescence (AID 2044); format: functional, cell-based;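 note: intracellular parasites grown in NIH/3T3 mouse fibroblasts as host cells; luminescent beta-galactosidase reporter signal from transgenic T. cruzi replicating inside host cells; inhibitors lower the luminescence signal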
INS1 = test: beta cell apoptosis inhibitors, cytokine rescue, dose response, luminescence, retest (AID 449756); format: functional, cell-based; conditions: Rattus norvegicus;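 note: cell death triggered by IL-1 beta plus TNF-alpha plus IFN-gamma mixture; protective hits raise ATP signal compared with cytokine alone wells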
[8] = cytotoxicity toward NIH3T3 fibroblasts, dose response, counter-screen, cell-based, ATP luminescence, mouse fibroblasts (AID 2010); format: functional;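 note: cells exposed to compound for about 90 hours before reading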
[9] = Shn3 3'UTR reporter inhibitors, dose response, cell-based, Clone20 osteoblasts, firefly luciferase, cherry-picked (AID 624132); format: functional;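 note: firefly luciferase luminescence from reporter carrying the Shn3 3'UTR in osteoblasts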
[10] = control 3'UTR Renilla luciferase suppression, dose response, counter-screen for Shn3 inhibitor project, cell-based, Clone20-Shn3RL, cherry-picked (AID 624133); format: functional

O=C(Cn1cnc2c(cnn2-c2ccccc2)c1=O)N1CCOCC1
CC50 [1]: 30.5 µM (active)

O=C(Cc1ccc(Cl)cc1)Nc1ccc2c(c1)C(=O)NC2=O
AC50 [2]: > 195 µM (inactive)

CCc1nnc(NC(=O)CSc2nnc(Cc3cccn3C)n2CCOC)s1
EC50 [3]: > 112 µM (not active) | EC50 [4]: > 112 µM (not active)

O=C(NNC(=O)c1cc(Cl)ccc1O)c1ccc(NS(=O)(=O)c2cccs2)cc1
EC50 [5]: > 38 µM (not active) | AC50 [2]: 9 µM (active) | EC50 [6]: > 160 µM (inactive)

CN=C(S)Nc1ccc(C(N)=O)cc1
EC50 [3]: > 112 µM (not active)

CNC(=S)Nc1ccc(C(N)=O)cc1
EC50 [4]: > 112 µM (not active)

Cc1ccc(-c2ccc(/C=C/C(=O)c3ccccc3)o2)cc1
CC50 [1]: 12.8 µM (active)

CCCCC(=O)N1C/C=C\C(c2ccc(OC)cc2)N(Cc2ccc(F)cc2)C(=O)[C@H]1Cc1ccccc1 (stereo not given in full)
EC50 [7]: 1.99 µM (active) | AC50 (INS1): 8.17 µM (active) | EC50 [8]: > 60 µM (not active)

COc1ccccc1NC(=O)COC(=O)c1ccccc1C(=O)N1CCN(c2ccccc2)CC1
CC50 [1]: 29.5 µM (active)

Cc1ccc2[nH]c(SCC(=O)Nc3ccc(C)c([N+](=O)[O-])c3)nc2c1
CC50 [1]: 25.5 µM (active)

O=C(NCc1ccccn1)c1cc(-c2ccc(Cl)cc2)oc1C(F)(F)F
AC50 (INS1): > 260 µM (inactive)

COc1cccc(N2CCN(Cc3nc(O)c4c(-c5ccccc5)csc4n3)CC2)c1
AC50 [2]: 1.08 µM (active)

COc1ccc(-c2cn3c(C)c(C(=O)N4CCCc5ccccc54)sc3n2)cc1
CC50 [1]: 13.3 µM (active)

CCN(CCn1cccn1)Cc1c[nH]nc1-c1cccc2ccccc12
EC50 [3]: > 112 µM (not active) | EC50 [4]: > 112 µM (not active)

Cc1cc(CN2CCOCC2)c(O)c(C2(C)CCCCC2)c1
AC50 [9]: 32.3 µM (active) | AC50 [10]: 32.1 µM (active)

COc1ccc(OC)c(CCNC(=O)CCc2nnc3ccc(N4CCCCC4)nn23)c1
EC50 [3]: 52.5 µM (active) | EC50 [4]: > 112 µM (not active)

COc1ccc(NC(=O)Nc2nc3c(s2)CCCC3)cc1
EC50 [5]: 8.48 µM (active) | EC50 [6]: > 150 µM (inactive)

Cc1ccc(-n2c(C)cc(/C(O)=C(/C([S-])=Nc3ccc(F)c(Cl)c3)[n+]3ccccc3)c2C)cc1
EC50 [5]: > 38 µM (not active) | EC50 [6]: > 160 µM (inactive)

COc1ccc(C2NC(c3ccc(OC)cc3)C([N+](=O)[O-])C(C)(C)C2[N+](=O)[O-])cc1 (stereo not given)
EC50 [3]: > 112 µM (not active) | EC50 [4]: > 112 µM (not active)
